Two substances from patent publication US6080724A, “Peptides which can be used as vectors for the intracellular addressing of active molecules” (Centre National de la Recherche Scientifique (CNRS), priority 1995, dated 2000) can be followed below.

The subject of the assay is E15 cortex and striatum cells. Description: Cellular localization of biotinylated peptides by confocal microscopy (fluorescent streptavidin). The following applies: 2 h. The assay is classed as cell-based. As for the experimental part: The cells were then washed, fixed and stained with fluorescent streptavidin.
The entry of the peptides of Table II was tested only by confocal microscopy; indeed, the absence of lysine in these peptides makes the attachments very difficult and therefore requires a very rapid observation which is incompatible with transfers onto filters or ELISA tests (multiple washes).
The E15 cortex and striatum cells are cultured on glass coverslips at a density of 25,000 cells/cm^2 for 2 days. The peptides are all added at a final concentration of 20 μM. […] The sections observed by confocal microscopy are presented in FIGS. 3 (37° C.) and 4 (4° C.). The cells which have integrated the peptide appear fluorescent, on a black background.
E15 cortex and striatum cells are cultured on glass coverslips at a density of 25,000 cells/cm^2 for 2 days. The peptides are added at a final concentration of 20 μM for peptide 43-58 and of 2 μM for the others and the cells are incubated for 2 h at 37° C. […] The results are illustrated in FIG. 6.

Regarding “Biot-Apa-Arg-Gln-Pro-Lys-Ile-Trp-Phe-Pro-Asn-Arg-Arg-Lys-Pro-Trp-Lys-Lys [3Pro]”, under “20 μM, 37° C. and 4° C.”, the internalization entry was “does not prevent internalization” and the nuclear addressing entry is listed as “appears to interfere with nuclear addressing”. For “Biot-Apa-Arg-Leu-Arg-Arg-Leu-Leu-Arg-Arg-Leu-Leu-Arg-Arg-Leu-Arg-Arg [L/R]”, the “internalization and cytoplasmic and nuclear addressing (localization)” value (2 μM, 37° C., streptavidin-FITC) was “found in a fraction which is apparently of the vesicular type, probably of endocytic character”.
